Measurements taken from patent US8034817B2, “Treatment of bacterial diseases of the respiratory organs” (Bayer Pharma Aktiengesellschaft, priority 2003, dated 2011).
Where a name gives a salt, the structure may show the parent alone. Read-outs that look alike come from different tables or passages of the source. Each block holds one molecule with its values, some of them ahead of it.

What was measured:
[1] = average for 3 animals
P. aeruginosa DSM 12055 [2] = assay: Efficacy in a model of lung infection with P. aeruginosa, treatment 1 and 4 hours after infection, microbe count in the lungs; format: in vivo, P. aeruginosa (host: female Wistar rats); details: lungs after 24 h relative to untreated infection control, average for 5 animals
Procedure: Efficacy in a Model of Lung Infection with P. aeruginosa
[…]. Various dose groups each of 5 rats were employed. The animals were sacrificed 24 hours after the infection, and the lungs were removed and homogenized with a Potter from Braun. The homogenates were plated out to determine the microbe count in the lungs.

P. aeruginosa DSM 12055 [3] = assay: Further test with P. aeruginosa DSM 12055, single intratracheal dry powder treatment, microbe count in the lungs; format: in vivo, P. aeruginosa (host: rats); details: single intratracheal treatment 1 hour after infection, 10 mg/kg, DP-3 dry powder insufflator
Procedure: A dose of 10 mg/kg was administered with the aid of a DP-3 dry powder insufflator (PENN-CENTURY, INC.). It is known from control investigations that about 5 to 20% of the administered dose reach the lungs.

[4] = rats; serum and lungs
[5] = 0.5 h, 7.5 mg/kg intratracheally as suspension, 7.5 mg/kg
[6] = 1 h, 7.5 mg/kg intratracheally as suspension, 7.5 mg/kg
[7] = 3 h, 7.5 mg/kg intratracheally as suspension, 7.5 mg/kg
[8] = 5 h, 7.5 mg/kg intratracheally as suspension, 7.5 mg/kg

SMILES: Cl.O=C(O)c1cn(C2CC2)c2cc(N3CCNCC3)c(F)cc2c1=O [ciprofloxacin hydrochloride]
- Lung concentration ([1]; 0.25 h, 7.5 mg/kg intravenously as solution): 0.61 µg/mL
- Lung concentration ([1]; 0.5 h, 7.5 mg/kg intratracheally as solution): 1.67 µg/mL
- Lung concentration ([1]; 0.5 h, 7.5 mg/kg intravenously as solution): 0.35 µg/mL
- Lung concentration ([1]; 1 h, 7.5 mg/kg intratracheally as solution): 0.63 µg/mL
- Lung concentration ([1]; 1 h, 7.5 mg/kg intravenously as solution): 0.14 µg/mL
- Lung concentration ([1]; 3 h, 7.5 mg/kg intratracheally as solution): 0.10 µg/mL
- Lung concentration ([1]; 3 h, 7.5 mg/kg intravenously as solution): 0 µg/mL
- Lung concentration ([1]; 5 h, 7.5 mg/kg intratracheally as solution): 0 µg/mL
- Lung concentration ([1]; 5 h, 7.5 mg/kg intravenously as solution): 0 µg/mL
- Reduction in microbe count (P. aeruginosa DSM 12055 [2]; 0.8 mg/kg i.t.): −1.8 log units
- Reduction in microbe count (P. aeruginosa DSM 12055 [2]; 2.5 mg/kg i.t.): −1.1 log units
- Reduction in microbe count (P. aeruginosa DSM 12055 [2]; 2.5 mg/kg i.v.): −2.8 log units
- Reduction in microbe count (P. aeruginosa DSM 12055 [2]; 7.5 mg/kg i.t.): −2.8 log units
- Reduction in microbe count (P. aeruginosa DSM 12055 [2]; 7.5 mg/kg i.v.): −3.5 log units
- Reduction in microbe count (P. aeruginosa DSM 12055 [2]; 22.5 mg/kg i.v.): −5.4 log units
- Reduction in microbe count (P. aeruginosa DSM 12055 [2]; 67.5 mg/kg i.v.): −8.8 log units

SMILES: O=C(O)c1cn(C2CC2)c2cc(N3CCNCC3)c(F)cc2c1=O [ciprofloxacin betaine (micronized), ciprofloxacin betaine]
- Lung concentration ([1]; 0.25 h, 7.5 mg/kg intratracheally as suspension, 7.5 mg/kg): 76 µg/mL
- Lung concentration [1, 5]: 76 µg/mL
- Lung concentration [1, 6]: 76 µg/mL
- Lung concentration [1, 7]: 54 µg/mL
- Lung concentration [1, 8]: 54 µg/mL
- Reduction of the microbe count in the lungs compared with an untreated control group (P. aeruginosa DSM 12055 [3]): more than 6 log units

- Fall of the concentration after intratracheal administration to the level reached orally [4]: within about an hour
SMILES: COc1c(N2C[C@@H]3CCCN[C@@H]3C2)c(F)cc2c(=O)c(C(=O)O)cn(C3CC3)c12 [moxifloxacin hydrochloride, Moxifloxacin hydrochloride]

SMILES: O=C(O)c1cn(C2CC2)c2cc(N3CCNCC3)c(F)cc2c1=O [ciprofloxacin betaine (laboratory product)]
- Lung concentration [1, 5]: 44.3 µg/mL
- Lung concentration [1, 6]: 40.1 µg/mL
- Lung concentration [1, 7]: 12.6 µg/mL
- Lung concentration [1, 8]: 7.21 µg/mL
- Reduction in microbe count (P. aeruginosa DSM 12055 [2]; 0.8 mg/kg i.t.): −4.0 log units
- Reduction in microbe count (P. aeruginosa DSM 12055 [2]; 2.5 mg/kg i.t.): −5.8 log units
- Reduction in microbe count (P. aeruginosa DSM 12055 [2]; 7.5 mg/kg i.t.): −10 log units
